Biological target: T1, Hyaluronidase from bovine testes (Bos taurus, UniProt Q2YDK3)
T1 sequence (Q2YDK3 36-553): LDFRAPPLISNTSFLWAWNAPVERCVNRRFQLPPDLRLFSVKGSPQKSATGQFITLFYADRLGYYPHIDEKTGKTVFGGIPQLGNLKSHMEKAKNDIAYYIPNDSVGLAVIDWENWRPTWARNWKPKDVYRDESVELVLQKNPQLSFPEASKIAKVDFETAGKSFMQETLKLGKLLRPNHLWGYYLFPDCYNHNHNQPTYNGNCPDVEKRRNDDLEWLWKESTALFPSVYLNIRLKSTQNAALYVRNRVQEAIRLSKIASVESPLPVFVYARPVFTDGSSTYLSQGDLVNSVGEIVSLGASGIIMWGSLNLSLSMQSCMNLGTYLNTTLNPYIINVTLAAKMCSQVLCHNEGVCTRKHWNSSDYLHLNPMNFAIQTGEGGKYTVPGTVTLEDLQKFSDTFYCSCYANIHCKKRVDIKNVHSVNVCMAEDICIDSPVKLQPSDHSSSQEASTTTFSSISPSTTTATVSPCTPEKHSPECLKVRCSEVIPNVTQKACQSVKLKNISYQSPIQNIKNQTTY
Assay: colorimetric hyaluronidase inhibition assay
Format: biochemical

| Structure (SMILES) | IC50 |
| --- | --- |
| O=C(O)CCC(=O)C(=O)O [AKG, α-ketoglutarate] | 2820 ± 38 µM |
| O=C(O)c1cc(=O)c2c(OCC(O)COc3cccc4oc(C(=O)O)cc(=O)c34)cccc2o1 [DSCG, disodium cromoglycate] | 360 ± 41 µM |

— PMC11444863 (Bioscience of Microbiota, Food and Health, 2024)
